Measurements reported in ChEMBL document CHEMBL5518206, “Hit-to-Lead Identification and Validation of a Triaromatic Pleuromutilin Antibiotic Candidate” (J Med Chem, 2024).
Calls of active or inactive are those of the source. No cut-off for these calls is given here.

How the values were obtained:
[1] = Cmax in NMRI female mouse at 30 mg/kg, iv by HPLC analysis; assay type: ADME, organism-based; conditions: in vivo
[2] = Plasma Concentration in pig at 3 mg/kg, iv measured upto 240 mins by LC-MS/MS analysis; assay type: ADME, organism-based, Sus scrofa
[3] = Clearance in NMRI female mouse at 20 mg/kg, sc by HPLC analysis; assay type: ADME, organism-based; conditions: in vivo
[4] = Tmax in pig urine at 3 mg/kg, iv measured upto 240 mins by LC-MS/MS analysis; assay type: ADME, organism-based, Sus scrofa
[5] = Bioavailability in NMRI female mouse at 60 mg/kg, sc by HPLC analysis; assay type: ADME, organism-based; conditions: in vivo
[6] = Clearance in pig urine at 3 mg/kg, iv measured upto 240 mins by LC-MS/MS analysis; assay type: ADME, organism-based, Sus scrofa
[7] = Half life in pig urine at 10 mg/kg, po measured upto 240 mins by LC-MS/MS analysis; assay type: ADME, organism-based, Sus scrofa
[8] = Plasma concentration in pig at 10 mg/kg, po measured upto 240 mins by LC-MS/MS analysis; assay type: ADME, organism-based, Sus scrofa
[9] = Tmax in pig plasma at 10 mg/kg, po measured upto 240 mins by LC-MS/MS analysis; assay type: ADME, organism-based, Sus scrofa
[10] = Half life in pig plasma at 3 mg/kg, iv measured upto 240 mins by LC-MS/MS analysis; assay type: ADME, organism-based, Sus scrofa
[11] = Tmax in NMRI female mouse at 30 mg/kg, iv by HPLC analysis; assay type: ADME, organism-based; conditions: in vivo
[12] = Cmax in NMRI female mouse at 60 mg/kg, sc by HPLC analysis; assay type: ADME, organism-based; conditions: in vivo
[13] = Half life in NMRI female mouse at 30 mg/kg, iv by HPLC analysis; assay type: ADME, organism-based; conditions: in vivo
[14] = AUC (0 to infinity) in NMRI female mouse at 20 mg/kg, sc by HPLC analysis; assay type: ADME, organism-based; conditions: in vivo
[15] = Elimination rate constant in pig plasma at 10 mg/kg, po measured upto 240 mins by LC-MS/MS analysis; assay type: ADME, organism-based, Sus scrofa
[16] = Cmax in NMRI female mouse at 20 mg/kg, sc by HPLC analysis; assay type: ADME, organism-based; conditions: in vivo
[17] = Tmax in NMRI female mouse at 20 mg/kg, sc by HPLC analysis; assay type: ADME, organism-based; conditions: in vivo
[18] = AUC (0 to infinity) in pig urine at 3 mg/kg, iv measured upto 240 mins by LC-MS/MS analysis; assay type: ADME, organism-based, Sus scrofa; conditions: in vivo, 4 h
[19] = Bioavailability in pig plasma at 10 mg/kg, po measured upto 240 mins by LC-MS/MS analysis; assay type: ADME, organism-based, Sus scrofa
[20] = Elimination rate constant in NMRI female mouse at 60 mg/kg, sc by HPLC analysis; assay type: ADME, organism-based; conditions: in vivo
[21] = Elimination rate constant in NMRI female mouse at 20 mg/kg, sc by HPLC analysis; assay type: ADME, organism-based; conditions: in vivo
[22] = Cmax in pig urine at 10 mg/kg, po measured upto 240 mins by LC-MS/MS analysis; assay type: ADME, organism-based, Sus scrofa
Staphylococcus aureus [23] = assay: (§1) Induction of resistant development in -(6-(6-(Piperazin-1-y1)-9H-purin-9-y)methyl)pyridin-3-y1)-1H-1,2,3-triazol-1-yl)-22-deoxypleuromutilin-16 passages resistance developed Staphylococcus aureus USA300 FPR3757 assessed as fold increase in MIC at sub-MIC concentration measured after 25 passages with conjugate by serial passage assay; assay type: functional
Staphylococcus aureus [24] = assay: Induction of resistant development in linezolid 5 passages resistance developed Staphylococcus aureus USA300 FPR3757 assessed as fold increase in MIC at sub-MIC concentration measured after 25 passages with conjugate by serial passage assay; assay type: functional
Staphylococcus aureus [25] = assay: Induction of resistant development in lefamulin 5 passages resistance developed Staphylococcus aureus USA300 FPR3757 assessed as fold increase in MIC at sub-MIC concentration measured after 5 passages with conjugate by serial passage assay; assay type: functional
Staphylococcus aureus [26] = assay: Induction of resistant development in lefamulin 5 passages resistance developed Staphylococcus aureus USA300 FPR3757 assessed as fold increase in MIC at sub-MIC concentration measured after 28 passages with conjugate by serial passage assay; assay type: functional
Staphylococcus aureus [27] = assay: as §1, with “13” for “25”; assay type: functional
Staphylococcus aureus [28] = assay: Induction of resistant development in linezolid 5 passages resistance developed Staphylococcus aureus USA300 FPR3757 assessed as fold increase in MIC at sub-MIC concentration measured after 28 passages with conjugate by serial passage assay; assay type: functional
Staphylococcus aureus [29] = assay: as §1, with “5” for “25”; assay type: functional
[30] = system: Staphylococcus epidermidis; assay: Antibacterial activity against Staphylococcus epidermidis assessed as inhibition of visible growth incubated for 20 to 24 hrs by microbroth serial dilution assay; assay type: functional, organism-based; conditions: time 20-24 hrs
Staphylococcus aureus [31] = assay: as §1, with “18” for “25”; assay type: functional
Listeria = assay: Antibacterial activity against Listeria assessed as inhibition of visible growth incubated for 20 to 24 hrs by microbroth serial dilution assay; assay type: functional, organism-based; conditions: time 20-24 hrs
Staphylococcus aureus [32] = assay: Induction of resistant development in lefamulin 5 passages resistance developed Staphylococcus aureus USA300 FPR3757 assessed as fold increase in MIC at sub-MIC concentration measured after 22 passages with conjugate by serial passage assay; assay type: functional
Staphylococcus aureus [33] = assay: Induction of resistant development in lefamulin 5 passages resistance developed Staphylococcus aureus USA300 FPR3757 assessed as fold increase in MIC at sub-MIC concentration measured after 13 passages with conjugate by serial passage assay; assay type: functional
Staphylococcus aureus [34] = assay: as §1, with “22” for “25”; assay type: functional
Escherichia coli = assay: Antibacterial activity against Escherichia coli assessed as inhibition of visible growth incubated for 20 to 24 hrs by microbroth serial dilution assay; assay type: functional, organism-based; conditions: time 20-24 hrs
Staphylococcus aureus [35] = assay: Antibacterial activity against multi drug-resistant Staphylococcus aureus USA300 FPR3757 assessed as reduction in bacterial growth at 1 times of MIC concentration measured after 24 hrs by time-kill assay; assay type: functional, organism-based
[36] = target: Voltage-gated inwardly rectifying potassium channel KCNH2 (Homo sapiens, UniProt Q12809); assay: Inhibition of K+ ion channel activity of hERG; assay type: toxicity
Sequence of Voltage-gated inwardly rectifying potassium channel KCNH2 (Q12809 whole entry): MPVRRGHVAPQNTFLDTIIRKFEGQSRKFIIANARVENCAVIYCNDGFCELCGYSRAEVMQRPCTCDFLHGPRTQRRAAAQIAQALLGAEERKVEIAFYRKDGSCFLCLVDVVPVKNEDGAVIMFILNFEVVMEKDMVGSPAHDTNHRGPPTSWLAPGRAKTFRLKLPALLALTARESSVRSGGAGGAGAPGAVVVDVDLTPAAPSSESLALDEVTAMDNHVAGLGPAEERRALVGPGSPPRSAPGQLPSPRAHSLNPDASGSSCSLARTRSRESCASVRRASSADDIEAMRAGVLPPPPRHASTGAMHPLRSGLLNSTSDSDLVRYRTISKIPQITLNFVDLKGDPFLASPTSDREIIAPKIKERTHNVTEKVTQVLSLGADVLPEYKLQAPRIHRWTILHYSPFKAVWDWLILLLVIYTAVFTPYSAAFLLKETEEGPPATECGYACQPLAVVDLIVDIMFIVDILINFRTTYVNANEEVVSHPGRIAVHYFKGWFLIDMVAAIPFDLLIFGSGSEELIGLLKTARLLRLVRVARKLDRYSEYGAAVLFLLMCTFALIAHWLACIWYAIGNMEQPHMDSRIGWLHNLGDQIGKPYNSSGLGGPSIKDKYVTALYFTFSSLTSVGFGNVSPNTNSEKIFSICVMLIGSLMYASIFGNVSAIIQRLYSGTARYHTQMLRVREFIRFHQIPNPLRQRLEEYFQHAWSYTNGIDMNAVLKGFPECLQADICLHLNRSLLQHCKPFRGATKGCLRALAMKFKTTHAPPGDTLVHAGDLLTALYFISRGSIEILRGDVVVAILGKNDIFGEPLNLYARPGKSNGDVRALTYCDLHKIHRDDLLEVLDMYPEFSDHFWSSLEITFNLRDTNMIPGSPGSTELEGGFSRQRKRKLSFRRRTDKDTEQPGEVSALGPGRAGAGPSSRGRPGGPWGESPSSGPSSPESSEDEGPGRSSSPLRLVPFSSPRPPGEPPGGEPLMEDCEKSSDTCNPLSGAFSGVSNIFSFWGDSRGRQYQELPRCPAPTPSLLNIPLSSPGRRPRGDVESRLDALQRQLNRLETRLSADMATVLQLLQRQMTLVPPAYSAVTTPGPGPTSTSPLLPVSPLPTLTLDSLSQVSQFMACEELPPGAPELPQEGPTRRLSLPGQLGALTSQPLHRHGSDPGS

Staphylococcus aureus [37] = assay: Induction of resistant development in linezolid 5 passages resistance developed Staphylococcus aureus USA300 FPR3757 assessed as fold increase in MIC at sub-MIC concentration measured after 13 passages with conjugate by serial passage assay; assay type: functional
Staphylococcus aureus [38] = assay: as §1, with “28” for “25”; assay type: functional
Staphylococcus aureus [39] = assay: Induction of resistant development in linezolid 5 passages resistance developed Staphylococcus aureus USA300 FPR3757 assessed as fold increase in MIC at sub-MIC concentration measured after 18 passages with conjugate by serial passage assay; assay type: functional

Compound: C=C[C@]1(C)C[C@@H](OC(=O)Cn2cc(-c3ccc(Cn4cnc5c(N6CCNCC6)ncnc54)nc3)nn2)[C@]2(C)[C@H](C)CC[C@]3(CCC(=O)[C@H]32)[C@@H](C)[C@@H]1O
- Cmax [1]: 8560 ng/mL
- concentration at 4 h [2]: 866 ng/mL
- CL/F [3]: 90.3 mL/min/kg
- Tmax [4]: 60 min
- bioavailability [5]: 33%
- CL renal at 4 h [6]: 3.67 mL/min/kg
- half-life [7]: 132 min
- concentration at 4 h [8]: 49.7 ng/mL
- Tmax [9]: 15 min
- half-life [10]: 75 min
- Tmax [11]: 0 h
- Cmax [12]: 2560 ng/mL
- half-life [13]: 52.8 min
- AUC [14]: 222 µg/mL/min
- k el at 4 h [15]: 0.000518 s⁻¹
- Cmax [16]: 1180 ng/mL
- Tmax [17]: 15 min
- AUC [18]: 821 µg/mL/min
- bioavailability [19]: 6%
- k el [20]: 0.000102 s⁻¹
- k el [21]: 9.33e-05 s⁻¹
- Cmax [22]: 114 ng/mL

Compound: C=C[C@]1(C)C[C@@H](OC(=O)CS[C@@H]2CC[C@@H](N)C[C@H]2O)[C@]2(C)[C@H](C)CC[C@]3(CCC(=O)[C@H]32)[C@@H](C)[C@@H]1O [LEFAMULIN]
- fold change (FC) (Staphylococcus aureus [23]): 64
- fold change (FC) (Staphylococcus aureus [24]): 32
- fold change (FC) (Staphylococcus aureus [25]): 4
- fold change (FC) (Staphylococcus aureus [26]): 128
- fold change (FC) (Staphylococcus aureus [27]): 16
- fold change (FC) (Staphylococcus aureus [28]): 32
- fold change (FC) (Staphylococcus aureus [29]): 8
- Activity [30]: inactive
- fold change (FC) (Staphylococcus aureus [31]): 32
- Activity (Listeria): inactive
- fold change (FC) (Staphylococcus aureus [32]): 32
- fold change (FC) (Staphylococcus aureus [33]): 32
- fold change (FC) (Staphylococcus aureus [34]): 32
- Activity (Escherichia coli): inactive
- Activity (Staphylococcus aureus [35]): inactive
- IC50 [36]: 78.2 µM
- fold change (FC) (Staphylococcus aureus [37]): 16
- fold change (FC) (Staphylococcus aureus [38]): 128
- fold change (FC) (Staphylococcus aureus [39]): 16
